This assay deals with mutant HTT protein (mHTT). Nature of the assay: Homogeneous Time Resolved Fluorescence (HTRF) assay for HTT lowering. Format: cell-based. The following applies: reduction of mHTT in Huntington patient human cells (GENEAe020-A cell line), 48 hours incubation, mean from three replicates. Here is the method:
Homogeneous Time Resolved Fluorescence for HTT lowering
The HTRF assay was adapted from Weiss et al. (Analytical Biochemistry Volume 395, Issue 1, 1 Dec. 2009, Pages 8-15 and Analytical Biochemistry Volume 410, 2011, Pages 304-306) to cells from GENEAe020-A cell line (https://hpscreg.eu/cell-line/GENEAe020-A).
Compounds were tested for the effect of mutant HTT levels in Huntington patient human cells (GENEAe020-A cell line) using Homogeneous Time Resolved Fluorescence (HTRF) directed towards mutant HTT protein (mHTT). The GENEAe020-A cell line was derived by Genea Biocells from human blastocysts of HD donors. After assessing viability, cells were plated into 384 well collagen coated plates in growth media. Once cells adhered, media was removed and test compounds dissolved in DMSO were diluted with buffer solution and added to the adherent cells. Controls included experiments with no cells, DMSO with no compound, and Hsp90 inhibitor control. Cells were incubated with compounds and controls for 48 hours. Then, the cells were lysed and transferred to an assay plate containing HTRF labeled monoclonal antibodies developed by Paul Patterson (Ko et al., Brain Research Bulletin, Volume 56, Numbers 3 and 4, 2001, Pages 319-329) which recognize specific areas of the HTT protein. The terbium labeled “donor” antibody (2B7) binds to the N-terminus of the HTT protein and the Alexa488 labeled “acceptor” antibody (MW1) is specific for the polyglutamine region of the protein. Binding of the acceptor labeled antibody is more efficient for the extended polyglutamine repeats of mutant HTT protein which translates into a signal boost which enables the specific measurement of mutant HTT protein level. The HTRF donor and acceptor detection reagents were incubated with the cell lysate and the ratio between the signals of the two fluorophores is indicative of the relative quantities of mHTT.
Consider `Cc1cn2nc(-c3cc(=O)n4cc([C@H]5C[C@H]6CNC[C@@H](C5)O6)sc4n3)cc(C)c2n1` [Example 48, 7-(2,8-dimethylimidazo[1,2-b]pyridazin-6-yl)-2-[rac-(1S,5R)-9-oxa-3-azabicyclo[3.3.1]nonan-7-yl]thiazolo[3,2-a]pyrimidin-5-one], for which the EC50 (in general, the concentration at which the effect is half-maximal) worked out at 92 nM.

`COc1cc(-c2cc(=O)n3cc([C@H]4CCNC[C@@H]4F)sc3n2)nn2cc(C)nc12` [Example 46, 7-(8-methoxy-2-methyl-imidazo[1,2-b]pyridazin-6-yl)-2-[(3R,4S)-3-fluoro-4-piperidyl]thiazolo[3,2-a]pyrimidin-5-one] had an EC50 of 69 nM.

Regarding `COc1cc(-c2cc(=O)n3cc(N4CCNCC4)sc3n2)nn2cc(C)nc12` [Example 13, 7-(8-methoxy-2-methyl-imidazo[1,2-b]pyridazin-6-yl)-2-piperazin-1-yl-thiazolo[3,2-a]pyrimidin-5-one], the response was half-maximal at 118 nM (EC50).

Molecule `Cc1cn2nc(-c3cc(=O)n4cc([C@H]5CCNC[C@H]5F)sc4n3)cc(C)c2n1` [Example 33, 7-(2,8-dimethylimidazo[1,2-b]pyridazin-6-yl)-2-[(3S,4S)-3-fluoro-4-piperidyl]thiazolo[3,2-a]pyrimidin-5-one] displayed a concentration giving a half-maximal response (EC50) of 86 nM.

On to `Cc1cn2nc(-c3cc(=O)n4cc(N5CCNCC5)sc4n3)cc(C)c2n1` [Example 1, 7-(2,8-dimethylimidazo[1,2-b]pyridazin-6-yl)-2-piperazin-1-yl-thiazolo[3,2-a]pyrimidin-5-one], for which the EC50 is 46 nM.

On to `Cc1cn2nc(-c3cc(=O)n4cc(N5CCNCC5)sc4n3)cc(C(C)C)c2n1` [Example 23, 7-(8-isopropyl-2-methyl-imidazo[1,2-b]pyridazin-6-yl)-2-piperazin-1-yl-thiazolo[3,2-a]pyrimidin-5-one], for which the midpoint of the response, the EC50, lay at 671 nM.

In the case of `Cc1cn2nc(-c3cc(=O)n4cc([C@H]5CCNC[C@@H]5F)sc4n3)cc(C)c2n1` [Example 39, 7-(2,8-dimethylimidazo[1,2-b]pyridazin-6-yl)-2-[(3R,4S)-3-fluoro-4-piperidyl]thiazolo[3,2-a]pyrimidin-5-one], the EC50 is 53 nM.

Turning to `COc1cc(-c2cc(=O)n3cc([C@@]4(F)CCNC[C@H]4F)sc3n2)nn2cc(C)nc12` [Example 58, 7-(8-methoxy-2-methyl-imidazo[1,2-b]pyridazin-6-yl)-2-[(3R,4R)-3,4-difluoro-4-piperidyl]thiazolo[3,2-a]pyrimidin-5-one], the EC50 worked out at 99 nM.

With `COc1cc(-c2cc(=O)n3cc([C@@H]4CCNC[C@H]4F)sc3n2)nn2cc(C)nc12` [Example 45, 7-(8-methoxy-2-methyl-imidazo[1,2-b]pyridazin-6-yl)-2-[(3S,4R)-3-fluoro-4-piperidyl]thiazolo[3,2-a]pyrimidin-5-one], it took 97 nM to reach a half-maximal effect (EC50).

`Cc1cn2nc(-c3cc(=O)n4cc([C@H]5[C@@H]6CNC[C@@H]65)sc4n3)cc(C)c2n1` [Example 55, 7-(2,8-dimethylimidazo[1,2-b]pyridazin-6-yl)-2-[rac-(1S,5R)-3-azabicyclo[3.1.0]hexan-6-yl]thiazolo[3,2-a]pyrimidin-5-one] gave an EC50 of 65 nM.

Molecule `Cc1cn2nc(-c3cc(=O)n4cc(N5CCN6CCC[C@H]6C5)sc4n3)cc(C)c2n1` [Example 9, 7-(2,8-dimethylimidazo[1,2-b]pyridazin-6-yl)-2-[(8aS)-3,4,6,7,8,8a-hexahydro-1H-pyrrolo[1,2-a]pyrazin-2-yl]thiazolo[3,2-a]pyrimidin-5-one] showed an EC50 of 796 nM.

Regarding `Cc1nc2c(F)cc(-c3cc(=O)n4cc(N5CCNCC5)sc4n3)cc2o1` [Example 5, 7-(4-fluoro-2-methyl-1,3-benzoxazol-6-yl)-2-piperazin-1-yl-thiazolo[3,2-a]pyrimidin-5-one], it took 499 nM to reach a half-maximal effect (EC50).

As to `Cc1cn2nc(-c3cc(=O)n4cc([C@H]5C[C@H]6CNC[C@@H](C5)O6)sc4n3)cc(C)c2n1` [Example 47, 7-(2,8-dimethylimidazo[1,2-b]pyridazin-6-yl)-2-[rac-(1R,5S)-9-oxa-3-azabicyclo[3.3.1]nonan-7-yl]thiazolo[3,2-a]pyrimidin-5-one], the 50% effective concentration (EC50) amounted to 330 nM.

Molecule `Cc1cn2nc(-c3cc(=O)n4cc(N5CCNCC5)sc4n3)cc(C3CC3)c2n1` [Example 18, 7-(8-cyclopropyl-2-methyl-imidazo[1,2-b]pyridazin-6-yl)-2-piperazin-1-yl-thiazolo[3,2-a]pyrimidin-5-one] returned an EC50 of 469 nM.

Consider `Cc1nc2c(C(F)(F)F)cc(-c3cc(=O)n4cc(N5CCNCC5)sc4n3)nc2o1` [Example 28, 7-[2-methyl-7-(trifluoromethyl)oxazolo[5,4-b]pyridin-5-yl]-2-piperazin-1-yl-thiazolo[3,2-a]pyrimidin-5-one], for which it took 691 nM to reach a half-maximal effect (EC50).

In turn, `Cc1cn2nc(-c3cc(=O)n4cc(N5CC[C@H](N6CCCC6)C5)sc4n3)cc(C)c2n1` [Example 21, 7-(2,8-dimethylimidazo[1,2-b]pyridazin-6-yl)-2-[(3S)-3-pyrrolidin-1-ylpyrrolidin-1-yl]thiazolo[3,2-a]pyrimidin-5-one] had an EC50 of 4200 nM.

`COc1cc(-c2cc(=O)n3cc([C@]4(F)CCNC[C@@H]4F)sc3n2)nn2cc(C)nc12` (racemic) [Example 52, 7-(8-methoxy-2-methyl-imidazo[1,2-b]pyridazin-6-yl)-2-[rac-(3S,4S)-3,4-difluoro-4-piperidyl]thiazolo[3,2-a]pyrimidin-5-one]: the midpoint of the response, the EC50, lay at 237 nM.

In turn, `Cc1cn2nc(-c3cc(=O)n4cc([C@@H]5CCNC6(CC6)C5)sc4n3)cc(C)c2n1` [Example 37, 7-(2,8-dimethylimidazo[1,2-b]pyridazin-6-yl)-2-[(7R)-4-azaspiro[2.5]octan-7-yl]thiazolo[3,2-a]pyrimidin-5-one] returned an EC50 of 112 nM.

Molecule `COc1cc(-c2cc(=O)n3cc([C@@H]4CCNC5(CC5)C4)sc3n2)nn2cc(C)nc12` [Example 41, 7-(8-methoxy-2-methyl-imidazo[1,2-b]pyridazin-6-yl)-2-[(7R)-4-azaspiro[2.5]octan-7-yl]thiazolo[3,2-a]pyrimidin-5-one] had an EC50 of 106 nM.

`Cc1cn2nc(-c3cc(=O)n4cc(N5CC(C)NC(C)C5)sc4n3)cc(C)c2n1` (centres unmarked) [Example 8, 7-(2,8-dimethylimidazo[1,2-b]pyridazin-6-yl)-2-(3,5-dimethylpiperazin-1-yl)thiazolo[3,2-a]pyrimidin-5-one] gave an EC50 of 386 nM.

Molecule `Cc1cn2nc(-c3cc(=O)n4cc(C5CCNCC5)sc4n3)cc(C)c2n1` [Example 24, 7-(2,8-dimethylimidazo[1,2-b]pyridazin-6-yl)-2-(4-piperidyl)thiazolo[3,2-a]pyrimidin-5-one] came in with an EC50 of 28 nM.

With `Cc1cc(-c2cc(=O)n3cc([C@@H]4CCNC[C@@H]4F)sc3n2)nn2cc(Cl)nc12` [Example 43, 7-(2-chloro-8-methyl-imidazo[1,2-b]pyridazin-6-yl)-2-[(3R,4R)-3-fluoro-4-piperidyl]thiazolo[3,2-a]pyrimidin-5-one], a half-maximal effect (EC50) was put at 152 nM.

Molecule `Cc1cn2nc(-c3cc(=O)n4cc(N5CCNC6(CC6)C5)sc4n3)cc(C)c2n1` [Example 4, 2-(4,7-diazaspiro[2.5]octan-7-yl)-7-(2,8-dimethylimidazo[1,2-b]pyridazin-6-yl)thiazolo[3,2-a]pyrimidin-5-one] gave an EC50 of 3530 nM.

Regarding `Cc1nc2c(C)cc(-c3cc(=O)n4cc(N5CCNCC5)sc4n3)nc2o1` [Example 20, 7-(2,7-dimethyloxazolo[5,4-b]pyridin-5-yl)-2-piperazin-1-yl-thiazolo[3,2-a]pyrimidin-5-one], the midpoint of the response, the EC50, lay at 136 nM.

Take `Cc1cc(-c2cc(=O)n3cc(C4CCNCC4)sc3n2)nn2cc(Cl)nc12` [Example 31, 7-(2-chloro-8-methyl-imidazo[1,2-b]pyridazin-6-yl)-2-(4-piperidyl)thiazolo[3,2-a]pyrimidin-5-one]: the EC50 stood at 71 nM.

In turn, `COc1cc(-c2cc(=O)n3cc([C@]4(F)CCNC[C@H]4F)sc3n2)nn2cc(C)nc12` [Example 56, 7-(8-methoxy-2-methyl-imidazo[1,2-b]pyridazin-6-yl)-2-[(3R,4S)-3,4-difluoro-4-piperidyl]thiazolo[3,2-a]pyrimidin-5-one] had an EC50 of 50 nM.

Consider `COc1cc(-c2cc(=O)n3cc(C4CCNCC4)sc3n2)nn2cc(C)nc12` [Example 29, 7-(8-methoxy-2-methyl-imidazo[1,2-b]pyridazin-6-yl)-2-(4-piperidyl)thiazolo[3,2-a]pyrimidin-5-one], for which a half-maximal response (EC50) required 35 nM.

Molecule `Cc1cn2nc(-c3cc(=O)n4cc(N5CCNCC5)sc4n3)cc(C(F)(F)F)c2n1` [Example 11, 7-[2-methyl-8-(trifluoromethyl)imidazo[1,2-b]pyridazin-6-yl]-2-piperazin-1-yl-thiazolo[3,2-a]pyrimidin-5-one] returned an EC50 of 19 nM.

`Cc1cn2nc(-c3cc(=O)n4cc([C@]5(F)CCNC[C@@H]5F)sc4n3)cc(C)c2n1` (racemic) [Example 54, 7-(2,8-dimethylimidazo[1,2-b]pyridazin-6-yl)-2-[rac-(3S,4S)-3,4-difluoro-4-piperidyl]thiazolo[3,2-a]pyrimidin-5-one] came in with an EC50 of 556 nM.

Source of the values: patent US20240018163A1, “NEW THIAZOLOPYRIMIDINONE DERIVATIVES” (Hoffmann-La Roche Inc., priority 2021, published 2024).
